Results as given in patent publication US7030251B2, “Modifications of the trometamol salt of R-thioctic acid as well as a process for their production” (Viatris GmbH & Co KG, priority 2001, dated 2006).
Where a name gives a salt, the structure may show the parent alone.

Test: Angle of repose α as a measure of flowability and pourability
Type: physicochemical
Settings: determined according to R. Voigt, Lehrbuch der pharmazeutischen Technologie, 3rd Edition 1979, p. 165
Text: The angle of repose α of the modifications as a measure of the flowability and pourability is likewise different: [table]

Angle of Repose α [°] | SMILES
46 | O=C(O)CCCC[C@@H]1CCSS1 [Modification A, trometamol salt of R-thioctic acid]
32 | O=C(O)CCCC[C@@H]1CCSS1 [Modification B, trometamol salt of R-thioctic acid]
34 | O=C(O)CCCC[C@@H]1CCSS1 [Modification mixture A/B = 1:1, trometamol salt of R-thioctic acid]
